Measured values as given in patent US11298364B2, “Methods and products for preventing and/or treating microorganism infections comprising iron chelators and non-iron porphyrins” (The University of Adelaide, priority 2015, dated 2022).

How the values were obtained:
[1] = system: S. aureus ATCC 25923 biofilms; assay: S. aureus biofilm killing, 96-well biofilm, AlamarBlue viability assay; assay type: cell-based, Staphylococcus aureus; details: 2 h
Experimental: Single colonies of S. aureus ATCC 25923 (American Type Culture Collection, Manassas, Va., USA) were immersed in 0.45% saline (Sigma Aldrich, Germany), adjusted to 1.0±0.1 McFarland units (3×10^8 colony forming units/ml), and diluted 1:15 in nutrient broth (Oxoid Ltd., England). The bacteria-broth mixture was added into 96-well plates at 150 μl per well (Costar®, Corning Incorporated, NY, USA). Incubation for 72 hours at 37° C. on a rotating plate set at 70 rpm (3D Gyratory Mixer, Ratek Instruments, Australia) assured extensive S. aureus biofilm growth.
Biofilms were washed twice with phosphate buffered saline (PBS, Sigma Aldrich, Germany) to remove planktonic cells, before treating the biofilms with various concentrations of i) Deferiprone (“Def”; 3-hydroxy-1,2-dimethylpyridin-4(1H)-one, Sigma Aldrich, Germany), ii) Gallium-Protoporphyrin (“GAPP”; Frontier Scientific, UT, USA), iii) a concurrent combination of both compounds and iv) a consecutive combination of both compounds. To prepare the treatments, Def was dissolved in water and GaPP was dissolved in an aqueous 0.03% solution of Tween® 80 (polyoxyethylene sorbitan […], Sigma Aldrich, Germany), i.e. above the critical micelle concentration (CMC) of Tween® 80 ([…]). Controls included bacterial wells without treatment (i.e. 100% bacterial growth, negative control), blank wells without bacteria (i.e. 0% growth, positive control) and bacterial wells with Tween® 80 treatment (as a control for GaPP dilutions). After 2 hours incubation of each treatment at 37° C. on a rotating plate, a second washing step with PBS followed to remove the treatments.
Bacterial viability was assessed using the AlamarBlue cell viability assay as described in Peeters, E. et al. (2008) Journal of Microbiological Methods, 72(2): p. 157-165. A 10% AlamarBlue dilution (Resazurin, Life Technologies, Australia) in nutrient broth was prepared and added to each well. Plates were incubated in the dark at 37° C. on a rotating plate. Fluorescence of Resorufin was measured hourly on a FLUOstar OPTIMA plate reader (BMG LABTECH, Germany). The method was set at bottom reading and fluorescence was measured at λexcitation 530 nm/λemission 590 nm. Maximum intensities were typically reached after 6 hours incubation and used for quantification according to Equation 1:
Bacterial viability was determined as the percentage of biofilm killing (% BK), where IC represents the fluorescence intensity of the controls (i.e. 100% bacterial growth) and IT indicates the maximum intensity of the treatments. Both IC and IT were corrected by the intensity of background (i.e. 0% bacterial growth).

[2] = Drug release from hydrogel into phosphate buffered saline; assay type: physicochemical
Experimental: Drug release: Five millilitre of gel was prepared in a Falcon tube and allowed to solidify, after which 10 ml release medium (phosphate buffered saline, Sigma Aldrich) was added. The tube was incubated at 37° C. on a rotating platform for 20 days. […] The concentration of […] quantified by UV-Vis spectroscopy (Evolution 201 UV-Vis Spectrophotometer, Thermo Fisher Scientific, Scoresby, VIC, Australia) at 280 nm and 405 nm, respectively, by interpolating from a standard curve.

[3] = system: planktonic clinical MRSA isolate MRSA b; assay: MIC of gel-released drugs, broth dilution (Example 6); assay type: cell-based, Staphylococcus aureus; details: MRSA b (resistant to 4 antibiotics)
Experimental: (§1) Bacterial strains: S. aureus ATCC 25923 was purchased from American Type Culture Collection (Manassas, Va., USA). Clinical MRSA isolate strains were obtained from Adelaide Pathology Partners (Mile End, SA, Australia).
(§2) The MIC was evaluated as the lowest drug concentration preventing bacterial growth.

[4] = system: planktonic clinical MRSA isolate MRSA d; assay: as above; assay type: cell-based, Staphylococcus aureus; details: MRSA d (resistant to 7 antibiotics)
Experimental: as §1, §2

[5] = system: planktonic clinical MRSA isolate MRSA e; assay: as above; assay type: cell-based, Staphylococcus aureus; details: MRSA e (resistant to 9 antibiotics)
Experimental: as §1, §2

[6] = system: planktonic clinical MRSA isolate MRSA a; assay: as above; assay type: cell-based, Staphylococcus aureus; details: MRSA a (resistant to 4 antibiotics)
Experimental: as §1, §2

[7] = system: planktonic clinical MRSA isolate MRSA c; assay: as above; assay type: cell-based, Staphylococcus aureus; details: MRSA c (resistant to 5 antibiotics)
Experimental: as §1, §2

[8] = system: planktonic S. aureus ATCC 25923; assay: as above; assay type: cell-based, Staphylococcus aureus; details: S. aureus 25923
Experimental: as §1, §2

[9] = system: planktonic S. aureus ATCC 25923; assay: Minimal inhibitory concentration, broth microdilution (Example 1); assay type: cell-based, Staphylococcus aureus; details: 20 hours, 37° C.
Experimental: MIC values were assessed for the individual compounds Def and GaPP against planktonic S. aureus using standard methods, specifically colony suspension method and broth microdilution as described in Wiegand, I. et al. (2008) Nat Protoc, 3(2): p. 163-75. Briefly, single colonies of S. aureus ATCC 25923 were suspended in 0.45% saline and adjusted to 0.5 McFarland units. The bacterial suspension was 1:100 diluted with nutrient broth and plated into 96-well plates. Various treatment dilutions of Def and GaPP were added, followed by incubation of the plate at 37° C. for 20 hours. The MIC was determined as the lowest drug concentration preventing turbidity.

[10] = system: L929 cells (mouse fibroblast cell line); assay: LDH cell viability test; assay type: cell-based; details: 2 h
Experimental: (§3) L929 cells (mouse fibroblast cell line) and Nuli-1 cells (human airway epithelial cell line) were obtained from ATCC (American Type Culture Collection, Manassas, Va., USA). The Nuli-1 cell line was cultured in Bronchial Epithelial Cell Growth Medium (Lonza, Australia) and L929 cells were grown in Dulbecco's Modified Eagle Medium (Sigma-Aldrich, Germany). Cells were maintained in a fully humidified incubator with 5% CO2 at 37° C.
(§4) The lactate dehydrogenase (LDH) bioassay (Roche Diagnostics Corporation, Indianapolis, Ind., USA) was performed to assess the cytotoxic effects of Def and GaPP. Briefly, cells were seeded at 1×10^4 into each well in 100 μl in quadruplicate wells of 96-well flat-bottom plates and incubated for 24 hours (37° C., 5% CO2) to allow attachment of cells. To assess the toxicity of the dual treatment, firstly, 100 μl of Def (20 mM) was added to each well. After 2 hours incubation, cells were washed three times with PBS and were exposed to different concentrations of GaPP (100, 200, 300, 400 and 500 μg/ml) for another 2 hours. In addition, cells were separately treated with either Def or GaPP for 2 hours. The OD was measured at 490 nm.

[11] = system: Nuli-1 cells (human airway epithelial cell line); assay: LDH cell viability test; assay type: cell-based; details: 2 h
Experimental: as §3, §4

[12] = system: S. aureus; assay: Plate assay for anti-bacterial properties (agar holes filled with vehicle); assay type: cell-based; details: in vehicle: 20 mM Def and/or 200 μg/ml GaPP, 24 hours
Experimental: To investigate the anti-bacterial properties of Def and GaPP individually, or with Def and GaPP in combination, a plate assay was used. Briefly, liquid nutrient agar was mixed with an aliquot of a S. aureus or Pseudomonas aeruginosa overnight culture and poured into Petri dishes. After the agar was solidified, holes (0.9 cm diameter) were punched into the agar and aspirated. Subsequently, the holes were filled with 200 μl of a vehicle with and without Def/GaPP. Following incubation at 37° C. for 24 hours, the inhibition diameter was assessed as a measure of efficacy against S. aureus or Pseudomonas aeruginosa bacteria.

[13] = Staphylococcus aureus, read-out: minimal inhibitory concentration

Cc1c(O)c(=O)ccn1C [Def, 3-hydroxy-1,2-dimethylpyridin-4(1H)-one, reference compound]
Biofilm killing (%) by single treatment Def ([1]; Def 0.5 mM): 6.09% | Biofilm killing (%) by single treatment Def ([1]; Def 1.5 mM): 7.65% | Biofilm killing (%) by single treatment Def ([1]; Def 5 mM): 12.07% | Biofilm killing (%) by single treatment Def ([1]; Def 10 mM): 22.88% | Biofilm killing (%) by single treatment Def ([1]; Def 20 mM): 34.00% | biofilm reduction plateau ([1]; Def at concentrations above 20 mM): approximately 34% | time to complete release from hydrogel ([2]; 37° C., PBS): 48 to 72 h | release of Def (percentage of the original concentration in the gel) ([2]; after approximately 48-72 hours, 37° C., PBS): 100% | MIC [3, 13]: 56 µg/mL | MIC [4, 13]: 56 µg/mL | MIC [5, 13]: 56 µg/mL | MIC [6, 13]: 56 µg/mL | MIC [7, 13]: 56 µg/mL | MIC ([8]; Staphylococcus aureus, ATCC25923, read-out: minimal inhibitory concentration): 28 µg/mL | MIC ([9]; Staphylococcus aureus, ATCC25923, read-out: MIC): 2500 µM | cell viability (LDH assay) vs negative control ([10]; Def 20 mM): no statistically significant difference | cell viability (LDH assay) vs negative control ([11]; Def 20 mM): no statistically significant difference | anti-bacterial activity (inhibition on plate) [12]: relatively little anti-bacterial activity

C=CC1=C(C)C2=[N+]3C1=Cc1c(C)c(C=C)c4[n]1[Ga-]31[n]3c(c(C)c(CCC(=O)O)c3=CC3=[N+]1C(=C4)C(C)=C3CCC(=O)O)=C2 (stereo not shown) [GaPP, gallium-protoporphyrin IX]
Biofilm killing (%) by single treatment GaPP ([1]; GaPP 1 μg/ml): 9.04% | Biofilm killing (%) by single treatment GaPP ([1]; GaPP 5 μg/ml): 32.18% | Biofilm killing (%) by single treatment GaPP ([1]; GaPP 10 μg/ml): 41.99% | Biofilm killing (%) by single treatment GaPP ([1]; GaPP 50 μg/ml): 52.90% | Biofilm killing (%) by single treatment GaPP ([1]; GaPP 100 μg/ml): 69.86% | release of GaPP (percentage of the original concentration in the gel) ([2]; after 460 hours, 37° C., PBS): 20-25% | incorporated GaPP released from the hydrogel ([2]; after 20 days): approximately 25% | minimal inhibitory concentration [3]: 0.74 µg/mL | minimal inhibitory concentration [4]: 1.48 µg/mL | minimal inhibitory concentration [5]: 1.48 µg/mL | minimal inhibitory concentration [6]: 1.48 µg/mL | minimal inhibitory concentration [7]: 1.48 µg/mL | minimal inhibitory concentration [8]: 0.90 µg/mL | MIC [9]: 0.4 µg/mL | cell viability (LDH assay) vs negative control ([10]; GaPP 500 μg/ml): induced cell toxicity | cell viability (LDH assay) vs negative control ([10]; GaPP 100-400 μg/ml): no significant effect | cell viability (LDH assay) vs negative control ([11]; GaPP 500 μg/ml): induced cell toxicity | cell viability (LDH assay) vs negative control ([11]; GaPP 100-400 μg/ml): no significant effect | anti-bacterial activity (inhibition on plate) [12]: significant anti-bacterial activity
